Tests used:
Type in all cases: cell-based
[1] = tested on: U266B1; assay: Cell growth inhibition test, U266B1; details: Homo sapiens, 72 h; U266B1, Multiple myeloma, 3 days, CellTiter-Glo
Protocol: (§1) A cell growth inhibition test was carried out by treating a cultured cancer cell line with a test compound for a given period and then counting the number of viable cells by CellTiter-Glo Luminescent Cell Viability Assay (manufactured by Promega Corp.).
(§2) The following cells were inoculated to a 384-well plate containing the compound prepared in advance at predetermined concentrations. […]
(§3) The cells thus inoculated were cultured at 37° C. for 3 days under 5% CO2. […] Then, luminescence intensity was measured using a plate reader.
(§4) The number of viable cells and luminescence intensity have been confirmed to correlate with each other. Therefore, the rate of cell growth was calculated according to the following expression: Rate of cell growth (T/C %) of a test compound-supplemented well=100×[(B−C)/(A−C)] wherein A represents the luminescence intensity (final culture date) of a test compound-free well; B represents the luminescence intensity (final culture date) of a test compound-containing well; and C represents the luminescence intensity (day of cell inoculation) of a well at the start of contact of the cells with the test compound.
(§5) T/C % at the concentration of each of the serially diluted test compounds was determined. […]

[2] = tested on: U251; assay: Cell growth inhibition test, U251; details: Homo sapiens, U-251, 72 h; U251, Brain tumor Central Nerve System, 3 days, CellTiter-Glo
Protocol: as §1, §2, §3, §4, §5

[3] = tested on: COR-L23; assay: Cell growth inhibition test, COR-L23; details: Homo sapiens, 72 h; COR-L23, Lung cancer, 3 days, CellTiter-Glo
Protocol: as §1, §2, §3, §4, §5

[4] = tested on: A549; assay: Cell growth inhibition test, A549; details: Homo sapiens, 72 h; A549, Lung cancer, 3 days, CellTiter-Glo
Protocol: as §1, §2, §3, §4, §5

[5] = tested on: OCI-LY7; assay: Cell growth inhibition test, OCI-LY7; details: Homo sapiens, 72 h; OCI-LY7, Lymphoma, 3 days, CellTiter-Glo
Protocol: as §1, §2, §3, §4, §5

[6] = tested on: CCRF-CEM; assay: Cell growth inhibition test, CCRF-CEM; details: Homo sapiens, 72 h, Leukemia, 3 days, CellTiter-Glo
Protocol: as §1, §2, §3, §4, §5

[7] = tested on: MOLT-4; assay: Cell growth inhibition test, MOLT-4; details: Homo sapiens, 72 h; MOLT-4, Leukemia, 3 days, CellTiter-Glo
Protocol: as §1, §2, §3, §4, §5

[8] = tested on: SNU-1; assay: Cell growth inhibition test, SNU-1; details: Homo sapiens, SNU1, 72 h; SNU-1, Stomach cancer, 3 days, CellTiter-Glo
Protocol: as §1, §2, §3, §4, §5

[9] = tested on: U-138 MG; assay: Cell growth inhibition test, U-138 MG; details: Homo sapiens, U138-MG, 72 h, Brain tumor Central Nerve System, 3 days, CellTiter-Glo
Protocol: as §1, §2, §3, §4, §5

[10] = tested on: SK-BR-3; assay: Cell growth inhibition test, SK-BR-3; details: Homo sapiens, 72 h; SK-BR-3, Breast cancer, 3 days, CellTiter-Glo
Protocol: as §1, §2, §3, §4, §5

[11] = tested on: A-172; assay: Cell growth inhibition test, A-172; details: Homo sapiens, 72 h; A-172, Brain tumor Central Nerve System, 3 days, CellTiter-Glo
Protocol: as §1, §2, §3, §4, §5

[12] = tested on: CALU-6; assay: Cell growth inhibition test, CALU-6; details: Homo sapiens, 72 h; CALU-6, Lung cancer, 3 days, CellTiter-Glo
Protocol: as §1, §2, §3, §4, §5

[13] = tested on: SJSA-1; assay: Cell growth inhibition test, SJSA-1; details: Homo sapiens, 72 h; SJSA-1, Bone and soft tissue tumor, 3 days, CellTiter-Glo
Protocol: as §1, §2, §3, §4, §5

[14] = tested on: T24; assay: Cell growth inhibition test, T24; details: Homo sapiens, T-24, 72 h; T24, Bladder cancer, 3 days, CellTiter-Glo
Protocol: as §1, §2, §3, §4, §5

[15] = tested on: COLO 205; assay: Cell growth inhibition test, COLO 205; details: Homo sapiens, 72 h; COLO 205, Large intestine cancer, 3 days, CellTiter-Glo
Protocol: as §1, §2, §3, §4, §5

[16] = tested on: RL952; assay: Cell growth inhibition test, RL952; details: Homo sapiens, RL95-2, 72 h; RL952, Endometrial cancer, 3 days, CellTiter-Glo
Protocol: as §1, §2, §3, §4, §5

[17] = tested on: U2 OS; assay: Cell growth inhibition test, U2 OS; details: Homo sapiens, U2OS, 72 h, Bone and soft tissue tumor, 3 days, CellTiter-Glo
Protocol: as §1, §2, §3, §4, §5

[18] = tested on: BxPC-3; assay: Cell growth inhibition test, BxPC-3; details: Homo sapiens, 72 h; BxPC-3, Pancreatic cancer, 3 days, CellTiter-Glo
Protocol: as §1, §2, §3, §4, §5

[19] = tested on: BT-474; assay: Cell growth inhibition test, BT-474; details: Homo sapiens, 72 h; BT-474, Breast cancer, 3 days, CellTiter-Glo
Protocol: as §1, §2, §3, §4, §5

Compound | GI50 [1] | GI50 [2] | GI50 [3] | GI50 [4] | GI50 [5] | GI50 [6] | GI50 [7] | GI50 [8] | GI50 [9] | GI50 [10] | GI50 [11] | GI50 [12] | GI50 [13] | GI50 [14] | GI50 [15] | GI50 [16] | GI50 [17] | GI50 [18] | GI50 [19]
CCOc1ccc(Cl)cc1C(=O)NCC(C)(C)CC(=O)Nc1c([C@H](C)CN(C)C)n(C)n(-c2ccccc2)c1=O [Example 68, 5-Chloro-N-[4-({5-[(1R)-2-(dimethylamino)-1-methylethyl]-1-methyl-3-oxo-2-phenyl-2,3-dihydro-1H-pyrazol-4-yl}amino)-2,2-dimethyl-4-oxobutyl]-2-ethoxybenzamide] | 220 nM | 440 nM | 200 nM | 910 nM | 130 nM | 220 nM | 130 nM | 230 nM | 670 nM | 520 nM | 380 nM | 430 nM | 750 nM | 650 nM | 310 nM | 530 nM | 530 nM | 220 nM | 1900 nM
CCOc1cc(F)c(Cl)cc1C(=O)NCC(C)(C)CC(=O)Nc1c(COC)n(C)n(-c2ccccc2)c1=O [Example 113, 5-Chloro-2-ethoxy-4-fluoro-N-(4-{[5-(methoxymethyl)-1-methyl-3-oxo-2-phenyl-2,3-dihydro-1H-pyrazol-4-yl]amino}-2,2-dimethyl-4-oxobutyl)benzamide] | 440 nM | 800 nM | 420 nM | 1100 nM | 150 nM | 530 nM | 160 nM | 580 nM | 1000 nM | 650 nM | 490 nM | 680 nM | 870 nM | 490 nM | 720 nM | 870 nM | 640 nM | 370 nM | 25000 nM
CCOc1ncc(Cl)cc1C(=O)NCC(C)(C)CC(=O)Nc1c([C@H](C)CN(C)C)n(C)n(-c2ccccc2)c1=O [Example 73, 5-Chloro-N-[4-({5-[(1R)-2-(dimethylamino)-1-methylethyl]-1-methyl-3-oxo-2-phenyl-2,3-dihydro-1H-pyrazol-4-yl}amino)-2,2-dimethyl-4-oxobutyl]-2-ethoxypyridine-3-carboxamide] | 620 nM | 980 nM | 550 nM | 2000 nM | 370 nM | 590 nM | 180 nM | 710 nM | 1000 nM | 1000 nM | 600 nM | 780 nM | 1300 nM | 850 nM | 850 nM | 890 nM | 920 nM | 440 nM | 5000 nM

— patent US20170107207A1, “AMINOPYRAZOLONE DERIVATIVE” (DAIICHI SANKYO COMPANY, LIMITED, priority 2014, published 2017)
